Assay [1] concerns the target T1, CDK4/CyclinD1 (Homo sapiens, UniProt P11802).
T1 construct: purchased Thermofisher PR8064A
Nature of the assay: Assay for inhibition of CDK4/CyclinD1 (Caliper microfluidic kinase assay). The format is biochemical. A digest of the protocol: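 IC50 was obtained by 4-parameter sigmoidal fitting after 1 nM CDK4/CyclinD1, 200 μM ATP and 1 μM FL-34 substrate reacted for 3 h at room temperature (pH 7.5 HEPES, 10 mM MgCl2). After EDTA quench, substrate and product were separated and detected on a Caliper microfluidic chip.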

For assay [2], the target named is T2, CDK2/CyclinE1 (Homo sapiens, UniProt P24941).
T2 construct: purchased SignalChem C29-18G
Nature of the assay: Assay for inhibition of CDK2/CyclinE1 (Caliper microfluidic kinase assay). Format: biochemical. To be noted: read-out: CDK2 IC50. A digest of the protocol: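 IC50 came from 4-parameter fits of substrate-to-product conversion, separated on a Caliper chip after an EDTA stop. Reactions ran 3 hours at room temperature with 100 μM ATP, 5 μM fluorescent FL-18 peptide and 5 nM enzyme in 100 mM HEPES pH 7.5, 10 mM MgCl2.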

For assay [3], the system named is T47D breast cancer cells. Nature of the assay: Anti-proliferation assay in T47D cell (Cyquant, day 6). Format: cell-based, human. The following applies: Homo sapiens, T47D, anti-proliferation, T47D cells; read-out: T47D IC50. A digest of the protocol:
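A ten-point, 3-fold compound series (10 μM down to 0.51 nM) was applied to overnight-settled cells in 10% FBS RPMI 1640, and DNA content was read by CyQuant fluorescence 6 days later. An untreated plate read before dosing served as baseline for subtraction before IC50 fitting.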

The subject of assay [4] is phosphorylation of Retinoblastoma Protein (pRb Ser807/811 or Ser780) in T47D cells. Nature of the assay: Inhibition of phosphorylation of retinoblastoma protein (pRb) in T47D cell (ELISA). The format is cell-based, human. To be noted: Homo sapiens, T47D, read-out: Phospho T47D Ser807 IC50, pRb Ser807 phosphorylation, T47D cells. How it is done: T47D breast cancer cells from American Type Culture Collection (ATCC, HTB-133) were plated at 40,000 cells/well in 96-well plates, and were incubated in RPMI 1640 medium (Gibco, 31800105) with 10% Fetal Bovine Serum (FBS, Biowest, FB-1058). Cells were then allowed to adhere overnight at 37° C., 5% CO2. The following day, compounds were titrated in a 3-fold dilution scheme, and the highest compound concentration tested was […]. After 24 hours incubation with compounds, cells were lysed in ice-cold lysis buffer containing phosphatase inhibitor cocktail and 1 mM PMSF. Cell lysates (50 μL/well) were then transferred to ELISA plates (pRb Ser807/811 ELISA kit, Cell Signaling, 13152 or pRb Ser780 ELISA kit, Cell Signaling, 13016)). Plates were incubated overnight at 4° C., with constant slow speed shaking. After incubation, plates were washed following manufacturer's recommendations, and then 100 μL reconstituted detection antibody was added to each well and incubated for 1 hour at 37° C. After incubation, plates were washed, and then 100 μL reconstituted HRP-linked secondary antibody was added to each well and incubated for 30 mins at 37° C. After incubation, plates were washed. Then, 100 μL TMB substrate was added to each well and incubated for 10 min at 37° C. or 30 min at 25° C. Finally, 100 μL of STOP solution was added to each well and mixed gently for a few seconds. Plates were read on the Envision plate reader (PerkinElmer, 2104-0010) using the 96-well […] mode. IC50 values were calculated using 4 parameter sigmoidal dose-response model of Xlfit5/GraphPad Prism 5 software.
A general note: An ELISA detects its analyte on a solid surface through an enzyme-linked reagent.

Usually IC50 stands for the concentration that gives 50% inhibition.

Where two headings read alike, the source gives them in different places.

T1 sequence (P11802 whole entry): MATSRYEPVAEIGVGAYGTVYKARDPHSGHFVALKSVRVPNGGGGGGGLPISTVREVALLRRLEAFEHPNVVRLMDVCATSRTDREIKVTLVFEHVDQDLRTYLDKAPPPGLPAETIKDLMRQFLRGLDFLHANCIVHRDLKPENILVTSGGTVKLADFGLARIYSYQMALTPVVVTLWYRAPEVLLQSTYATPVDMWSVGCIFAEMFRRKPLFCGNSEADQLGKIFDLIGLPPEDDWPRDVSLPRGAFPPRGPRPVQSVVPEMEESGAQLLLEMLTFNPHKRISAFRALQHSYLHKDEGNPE
T1 sequence (P24385 whole entry partner): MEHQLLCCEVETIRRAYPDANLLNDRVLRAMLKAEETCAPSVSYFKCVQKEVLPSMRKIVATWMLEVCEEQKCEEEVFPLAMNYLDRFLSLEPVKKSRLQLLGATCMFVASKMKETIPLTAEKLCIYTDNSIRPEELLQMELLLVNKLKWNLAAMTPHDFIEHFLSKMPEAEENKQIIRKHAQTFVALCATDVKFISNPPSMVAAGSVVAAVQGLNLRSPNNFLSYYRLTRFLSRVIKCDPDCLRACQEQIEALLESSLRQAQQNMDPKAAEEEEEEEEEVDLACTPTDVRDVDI

Consider `CC(C)c1cnn2c(C#N)cc(-c3ccnc(Nc4ccc(N5CCNCC5=O)cn4)n3)cc12` [compound 38], for which the IC50 in assay [1] (CDK4/CyclinD1, 200 μM ATP) is 10 to 100 nM; in assay [2] (CDK2/CyclinE1, 100 μM ATP) it was greater than 1000 nM; in assay [3], greater than 1000 nM; in assay [4], 500 to 1000 nM.

Turning to `COc1nc(-c2ccnc(Nc3ccc(N4CCOCC4)cn3)n2)cc2c1ncn2C(C)C` [compound 66], the IC50 in assay [1] (CDK4/CyclinD1) was less than 10 nM; in assay [2] (CDK2/CyclinE1), greater than 1000 nM; in assay [3], 100 to 500 nM; in assay [4], 100 to 500 nM.

As to `COc1nc(-c2ccnc(Nc3ccc(CN4CCC(F)(F)C4)cn3)n2)cc2c1ncn2C(C)C` [compound 69], the IC50 in assay [1] (CDK4/CyclinD1) is 10 to 100 nM; in assay [2] (CDK2/CyclinE1), greater than 1000 nM; in assay [3] it was 100 to 500 nM; in assay [4] it was 100 to 500 nM.

`COc1nc(-c2ccnc(Nc3ccc(CN4CCOCC4)cn3)n2)cc2c1ncn2C(C)C` [compound 81]: the IC50 in assay [1] (CDK4/CyclinD1) is 10 to 100 nM; in assay [2] (CDK2/CyclinE1), greater than 1000 nM; in assay [3], 100 to 500 nM; in assay [4] it was 100 to 500 nM.

Take `COc1nc(-c2nc(Nc3ccc(N4CCCC4=O)cn3)ncc2F)cc2c1nc(C)n2C(C)C` [compound 82]: the IC50 fell in the range of 10 to 100 nM in assay [1] (CDK4/CyclinD1), 100 to 1000 nM in assay [2] (CDK2/CyclinE1), 100 to 500 nM in assay [3] and 100 to 500 nM in assay [4].

For the compound `COc1nc(-c2ccnc(Nc3ccc(N4CCOC(C)(C)C4)cn3)n2)cc2c1ncn2C(C)C` [compound 88], the IC50 in assay [1] (CDK4/CyclinD1) was 10 to 100 nM; in assay [2] (CDK2/CyclinE1), greater than 1000 nM; in assay [3] it was 100 to 500 nM; in assay [4], 100 to 500 nM.

Regarding `COc1nc(-c2ccnc(Nc3ccc(N4CCOC(C)C4)cn3)n2)cc2c1ncn2C(C)C` (stereo not drawn) [compound 96], the IC50 in assay [1] (CDK4/CyclinD1) is 10 to 100 nM; in assay [2] (CDK2/CyclinE1), greater than 1000 nM; in assay [3] it was 100 to 500 nM; in assay [4], 100 to 500 nM.

Turning to `COc1nc(-c2ccnc(Nc3ccc(N4CC5CC4CO5)cn3)n2)cc2c1ncn2C(C)C` (stereo not drawn) [compound 104], the IC50 in assay [1] (CDK4/CyclinD1) is 10 to 100 nM; in assay [2] (CDK2/CyclinE1) it was greater than 1000 nM; in assay [3], 100 to 500 nM; in assay [4], 100 to 500 nM.

On to `COc1nc(-c2ccnc(Nc3ccc(N4CCN(C5COC5)CC4)cn3)n2)cc2c1ncn2C(C)C` [compound 130], for which the IC50 in assay [1] (CDK4/CyclinD1, 200 μM ATP) was less than 10 nM; in assay [2] (CDK2/CyclinE1, 100 μM ATP), greater than 1000 nM; in assay [3], 100 to 500 nM; in assay [4] it was 100 to 500 nM.

In the case of `CCNC1CCN(c2ccc(Nc3nccc(-c4ccn5ncc(C(C)C)c5c4)n3)nc2)C(=O)C1` (stereo not drawn) [compound 209], the IC50 is less than 10 nM in assay [1] (CDK4/CyclinD1, 200 μM ATP); less than 10 nM in assay [2] (CDK2/CyclinE1, 100 μM ATP); less than 100 nM in assay [3]; less than 100 nM in assay [4].

On to `CC(C)c1cnn2ccc(-c3ccnc(Nc4ccc(N5CCNCC5=O)nc4)n3)cc12` [compound 227], for which the IC50 is less than 10 nM in assay [1] (CDK4/CyclinD1, 200 μM ATP); less than 10 nM in assay [2] (CDK2/CyclinE1, 100 μM ATP); less than 100 nM in assay [3]; less than 100 nM in assay [4].

With `CC(C)n1cnc2c1CN(c1ccnc(Nc3ccc(N4CCN(S(C)(=O)=O)CC4=O)cn3)n1)CC2` [compound 240], the IC50 was 10 to 100 nM in assay [1] (CDK4/CyclinD1, 200 μM ATP); 10 to 100 nM in assay [2] (CDK2/CyclinE1, 100 μM ATP); greater than 1000 nM in assay [3]; greater than 1000 nM in assay [4].

With `CCN1CCN(c2ccc(Nc3nccc(N4CCc5ncn(C(C)C)c5C4)n3)nc2)C(=O)C1` [compound 241], the IC50 in assay [1] (CDK4/CyclinD1, 200 μM ATP) was 10 to 100 nM; in assay [2] (CDK2/CyclinE1, 100 μM ATP) it was 100 to 1000 nM; in assay [3], 100 to 500 nM; in assay [4] it was less than 100 nM.

For `CC(C)n1cnc2c1CN(c1ccnc(Nc3ccc(N4CCC(N5CC(F)C5)CC4=O)cn3)n1)CC2` (stereo not drawn) [compound 243], the IC50 in assay [1] (CDK4/CyclinD1, 200 μM ATP) lay within 10 to 100 nM; in assay [2] (CDK2/CyclinE1, 100 μM ATP), 10 to 100 nM; in assay [3], 500 to 1000 nM; in assay [4], 100 to 500 nM.

For `CC1(C)COc2c(F)cc(-c3ccnc(Nc4ccc(N5CCCNC5=O)cn4)n3)cc21` [compound 262], the IC50 was less than 10 nM in assay [1] (CDK4/CyclinD1, 200 μM ATP); 100 to 1000 nM in assay [2] (CDK2/CyclinE1, 100 μM ATP); less than 100 nM in assay [3]; less than 100 nM in assay [4].

The values are drawn from patent publication US20220296595A1, “CDK INHIBITORS” (QILU REGOR THERAPEUTICS INC., priority 2019, published 2022).
